The values below come from patent US8901138B2, “Sulfoximine substituted quinazolines for pharmaceutical compositions” (Boehringer Ingelheim International GmbH, priority 2012, dated 2014).

In assay [1] the target is T1, MNK2a (Homo sapiens, UniProt Q9HBH9).
T1 construct: made in house
Put plainly: MNK2a in vitro kinase assay (assay 1), ADP-Glo. The assay is classed as biochemical. To be noted: preactivated GST-MNK2a, 20 μM ATP, read-out: MNK2 IC50. The essentials: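 Preactivated GST-MNK2a (10 nM) with eIF4E peptide (25 μM) and ATP (20 μM) in HEPES/DTT/MgCl2 buffer, 90 min at room temperature, final DMSO <3%. ADP formed read by ADP-Glo luminescence and normalised to vehicle and 20 μM reference-inhibitor controls; IC50 from dose-response curves.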
A general note: In ADP-Glo the light output rises with the ADP produced.

The target of assay [2] is MNK1a (Homo sapiens, UniProt Q9BUB5). Put plainly: MNK1 in vitro kinase assay (assay 2), Z'-LYTE. The format is biochemical. To be noted: for inhibition at 1 µM: compound concentration of 1 μM; for IC50: pre-activated GST-MNK1a. From the text: B. MNK1 In Vitro Kinase Assay (Assay 2)
Sequence of MNK1a (Q9BUB5 1-424 isoform Q9BUB5-2): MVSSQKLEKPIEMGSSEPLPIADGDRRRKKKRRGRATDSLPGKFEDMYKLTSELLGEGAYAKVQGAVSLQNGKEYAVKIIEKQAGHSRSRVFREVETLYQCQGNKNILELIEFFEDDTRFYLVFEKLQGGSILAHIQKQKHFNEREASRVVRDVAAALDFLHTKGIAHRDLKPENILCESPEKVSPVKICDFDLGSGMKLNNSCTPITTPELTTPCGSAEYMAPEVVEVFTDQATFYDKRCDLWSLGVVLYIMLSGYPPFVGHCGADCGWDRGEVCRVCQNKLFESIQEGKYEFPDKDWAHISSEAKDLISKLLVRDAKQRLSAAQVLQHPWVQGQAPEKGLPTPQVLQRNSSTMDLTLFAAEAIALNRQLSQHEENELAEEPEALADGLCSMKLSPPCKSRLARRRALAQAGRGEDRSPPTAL
MNK1 Data can be obtained from the MNK1 Z′-LYTE® assay. The MNK1 Z′-LYTE® screening protocol and assay conditions are also described on www.invitrogen.com.
The assay is described as follows:
The Z′-LYTE® biochemical assay employs a fluorescence-based, coupled-enzyme format and is based on the differential sensitivity of phosphorylated and non-phosphorylated peptides to proteolytic cleavage. The peptide substrate is labeled with two fluorophores—one at each end—that make up a FRET pair.
In the primary reaction, the kinase transfers the gamma-phosphate of ATP to a single tyrosine, serine or threonine residue in a synthetic FRET-peptide. In the secondary reaction, a site-specific protease recognizes and cleaves non-phosphorylated FRET-peptides. Phosphorylation of FRET-peptides suppresses cleavage by the Development Reagent. Cleavage disrupts FRET between the donor (i.e., coumarin) and acceptor (i.e., fluorescein) fluorophores on the FRET-peptide, whereas uncleaved, phosphorylated FRET-peptides maintain FRET. A ratiometric method, which calculates the ratio (the Emission Ratio) of donor emission to acceptor emission after excitation of the donor fluorophore at 400 nm, is used to quantitate reaction progress, as shown in the equation below. Emission Ratio=Coumarin Emission(445 nm)/Fluorescein Emission(520 nm)
ASSAY SETUP: The inhibition of kinase activity of MNK1a was assessed using pre-activated GST-MNK1a. The 2×MKNK1 (MNK1) mixture is prepared in 50 mM HEPES pH 7.5, 0.01% BRIJ-35, 10 mM MgCl2, 4 mM MnCl2, 1 mM EGTA, 2 mM DTT. The final 10 μL Kinase Reaction consists of 13.5-54 ng MKNK1 (MNK1) and 2 μM Ser/Thr 07 in 50 mM HEPES pH 7.5, 0.01% BRIJ-35, 10 mM MgCl2, 2 mM MnCl2, 1 mM EGTA, 1 mM DTT. After the 1 hour Kinase Reaction incubation, 5 μL of a 1:32768 dilution of Development Reagent A is added.
The Test Compounds are screened in 1% DMSO (final) in the well.
All Peptide/Kinase Mixtures are diluted to a 2× working concentration in the MNK1 Kinase Buffer.
All ATP Solutions are diluted to a 4× working concentration in Kinase Buffer (50 mM HEPES pH 7.5, 0.01% BRIJ-35, 10 mM MgCl2, 1 mM EGTA).
Development Reagent Solution:
The Development Reagent is diluted in Development Buffer
Bar-coded Corning, low volume NBS, 384-well plate (Corning Cat. #3676)
1. 2.5 μL-4× Test Compound
2. 5 μL-2× Peptide/Kinase Mixture
5. 60-minute Kinase Reaction incubation at room temperature
6. 5 μL-Development Reagent Solution
8. 60-minute Development Reaction incubation at room temperature
9. Read on fluorescence plate reader and analyze the data
The following equations are used for each set of data points: […]
Correction for Background Fluorescence: FSample−FITCFl Ctl
Emission Ratio (using values corrected for background fluorescence):Coumarin
Emission (445 nm)/Fluorescein Emission (520 nm)
% Phosphorylation (% Phos): 1−((Emission Ratio×F100%)−C100%)/((C0%−C100%)+[Emission Ratio×(F100%−F0%)])*100 % Inhibition: 1−(% PhosSample/% Phos0% Inhibition Ctl)*100 FI=Fluorescence Intensity C100%=Average Coumarin emission signal of the 100% Phos. Control C0%=Average Coumarin emission signal of the 0% Phos. Control F100%=Average Fluorescein emission signal of the 100% Phos. Control F0%=Average Fluorescein emission signal of the 0% Phos. Control Graphing Software
SelectScreen® Kinase Profiling Service uses XLfit from IDBS. The dose response curve is curve fit to model number 205 (sigmoidal dose-response model).

T1 sequence (Q9HBH9 whole entry): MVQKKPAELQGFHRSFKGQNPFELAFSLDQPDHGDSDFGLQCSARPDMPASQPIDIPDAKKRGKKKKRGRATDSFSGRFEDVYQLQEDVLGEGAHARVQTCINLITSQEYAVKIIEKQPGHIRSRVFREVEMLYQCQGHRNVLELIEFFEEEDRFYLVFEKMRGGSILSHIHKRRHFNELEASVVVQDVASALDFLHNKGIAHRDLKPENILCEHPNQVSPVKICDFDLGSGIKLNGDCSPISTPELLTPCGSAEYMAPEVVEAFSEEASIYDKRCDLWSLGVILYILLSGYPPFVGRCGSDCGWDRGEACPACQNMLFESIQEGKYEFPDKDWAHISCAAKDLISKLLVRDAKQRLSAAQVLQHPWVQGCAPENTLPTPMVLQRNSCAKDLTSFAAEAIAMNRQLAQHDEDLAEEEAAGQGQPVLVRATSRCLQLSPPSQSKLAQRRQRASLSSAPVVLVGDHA

With `Cc1cc(N=S(C)(C)=O)cc2ncnc(Nc3ccc(F)cc3OC3CC(O)C3(C)C)c12` (stereo not shown) [Example 1.35], in assay [1], the IC50 came to 5 nM. Moreover, the inhibition at 1 µM in assay [2] was 85%.

As for `CO[C@@H]1CCC[C@H]1Oc1cc(F)ccc1Nc1ncnc2cc(N=S(C)(C)=O)cc(C)c12` [Example 1.36], the IC50 in assay [1] was found to be 2 nM. In addition, in assay [2], the inhibition at 1 µM is 84%.

For `Cc1cc(N=S(C)(C)=O)cc2ncnc(Nc3cccnc3O[C@H]3CCCNC3)c12` [Example 1.37], the IC50 turned out to be 4 nM in assay [1] and 28 nM in assay [2].

Regarding `Cc1cc(N=S(C)(C)=O)cc2ncnc(Nc3ccc(C#N)nc3OC3CCOCC3)c12` [Example 1.38], the IC50 in assay [1] is 12 nM. In addition, in assay [2], the inhibition at 1 µM amounted to 99%.

With `Cc1cc(N=S(C)(C)=O)cc2ncnc(Nc3ccc(F)nc3O[C@H]3CCOC3)c12` [Example 1.40], in assay [1], the IC50 came out at 3 nM. Further, the inhibition at 1 µM in assay [2] came to 94%.

With `Cc1cc(N=S(C)(C)=O)cc2ncnc(Nc3ccc(Cl)nc3O[C@H]3CCOC3)c12` [Example 1.41], the IC50 in assay [1] came to 3 nM; in assay [2] it was 74 nM.

Turning to `COc1cc(N=S(C)(C)=O)cc2ncnc(Nc3ccc(F)cc3O[C@@H]3CO[C@H]4[C@@H]3OC[C@H]4OC)c12` [Example 2.1], the IC50 in assay [1] amounted to 1 nM; in assay [2] it was 11 nM.

On to `Cc1cc(N=S2(=O)CCOCC2)cc2ncnc(Nc3ccc(F)cc3O[C@@H]3CO[C@H]4[C@@H]3OC[C@H]4O)c12` [Example 2.2], for which the IC50 in assay [1] turned out to be 4 nM. In assay [2], this compound came in with an inhibition at 1 µM of 95%.

With `Cc1cc(N=S2(=O)CCOCC2)cc2ncnc(Nc3ccc(F)cc3O[C@H]3CCOC3)c12` [Example 2.3], in assay [1], the IC50 stood at 5 nM. This compound had an inhibition at 1 µM in assay [2] of 89%.

For the compound `Cc1cc(N=S2(=O)CCCC2)cc2ncnc(Nc3cccnc3O[C@@H]3CO[C@H]4[C@@H]3OC[C@H]4O)c12` [Example 2.4], the IC50 in assay [1] came to 4 nM. The compound also had an inhibition at 1 µM in assay [2] of 97%.

Take `Cc1cc(N=S(C)(C)=O)cc2ncnc(Nc3cccnc3OC3CCOCC3)c12` [Example 2.6]: the IC50 in assay [1] was determined as 4 nM. Moreover, in assay [2], testing at 1 µM gave an inhibition of 92%.

`CCO[C@@H]1CO[C@H]2[C@@H]1OC[C@H]2Oc1cc(F)ccc1Nc1ncnc2cc(N=S(C)(C)=O)cc(C)c12` [Example 2.7]: the IC50 in assay [1] came to 1 nM. In assay [2], the inhibition at 1 µM was determined as 98%.

`Cc1cc(N=S2(=O)CCCC2)cc2ncnc(Nc3ccsc3O[C@@H]3CCOC3)c12` [Example 2.8]: in assay [1], the IC50 is 44 nM. For the same compound, testing at 1 µM in assay [2] gave an inhibition of 64%.

With `Cc1cc(N=S(C)(C)=O)cc2ncnc(Nc3cccnc3O[C@H]3CC[C@H](NC(=O)OC(C)(C)C)CC3)c12` [Example 2.10], the IC50 in assay [1] was 4 nM. This compound returned an inhibition at 1 µM in assay [2] of 92%.

On to `Cc1cc(N=S(C)(=O)c2ccccn2)cc2ncnc(Nc3ccc(F)cc3O[C@@H]3CO[C@@H]4CCO[C@@H]43)c12` (stereo partly shown) [Example 2.11], for which, in assay [1], the IC50 stood at 6 nM. In assay [2], this compound gave an inhibition at 1 µM of 92%.

On to `CCS(=O)(CC)=Nc1cc(C)c2c(Nc3ccc(F)cc3O[C@H]3CC[C@H](OC)CC3)ncnc2c1` [Example 2.12], for which, in assay [1], the IC50 came to 13 nM. Besides, 1 µM produced 24% inhibition in assay [2].

As to `CC(C)(C)OC(=O)N1CCC[C@@H](Oc2cc(F)ccc2Nc2ncnc3cc(N=S(C)(C)=O)cc(F)c23)C1` [Example 2.13], the IC50 in assay [1] came out at 39 nM. In assay [2], this compound showed an inhibition at 1 µM of 73%.

In the case of `CO[C@H]1CC[C@H](Oc2cc(F)ccc2Nc2ncnc3cc(N=S4(=O)CCN(C(=O)OC(C)(C)C)CC4)cc(C)c23)CC1` [Example 2.14], the IC50 in assay [1] worked out at 9 nM. Also, testing at 1 µM in assay [2] gave an inhibition of 52%.

On to `CC(C)(C)OC(=O)N[C@H]1CC[C@H](Oc2ncccc2Nc2ncnc3cc(N=S(C)(C)=O)cc(F)c23)CC1` [Example 2.15], for which the IC50 in assay [1] is 7 nM. For the same compound, the inhibition at 1 µM in assay [2] came to 72%.

Regarding `Cc1cc(N=S(C)(C)=O)cc2ncnc(Nc3ccc(C(N)=O)cc3OC3CCOCC3)c12` [Example 2.16], in assay [1], the IC50 was found to be 10 nM. The same compound came in with an inhibition at 1 µM in assay [2] of 94%.

For orientation: IC50 means the concentration needed to halve the response being measured. The term inhibition denotes how much of the control response was suppressed. Low values mean a response near the control, high ones a response far below the control.
